Results published in patent US8101638B2, “6-substituted nicotinamide derivatives as opioid receptor antagonists” (Eli Lilly and Company, priority 2003, dated 2012).

Columns and labels:
Format in all cases: biochemical
mu opioid receptor (MOR) = mu opioid receptor (MOR) (Homo sapiens, UniProt P35372); test: SPA-based GTP-γ-S binding assay, antagonist mode, mu opioid receptor; details: antagonist assay against agonist DAMGO 1 micromolar; membranes; Kb by Cheng-Prusoff equation
Procedure: (§1) A scintillation proximity assay (SPA) based GTP-γ-S^35 assay format was developed based on previous opioid (Emmerson et al., J. Pharm Exp Ther 278, 1121, 1996; Horng et al., Society for Neuroscience Abstracts, 434.6, 2000) and muscarinic (DeLapp et al., JPET 289, 946, 1999) assay formats. Membranes were resuspended in 20 mM HEPES, 100 mM NaCl, 5 mM MgCl2, 1 mM DTT, and 1 mM EDTA. […] of GTP-γ-[35S], compound, membrane suspension (20 microgram/well), and wheat germ agglutinin coated SPA beads (1 mg/well) were added to clear bottom 96 well assay plates. GDP ([…]) was added to the membrane solution prior to addition to the assay plates. Plates were sealed and incubated for four hours at room temperature then placed in a refrigerator overnight to allow the beads to settle. Signal stability at 4° C. was determined to be >60 hours. Plates were warmed to room temperature and counted in a Wallac Microbeta scintillation counter. For antagonist assays, specific agonists were added at the following concentrations: (MOR) DAMGO 1 micromolar, (DOR) DPDPE 30 nM, (KOR) U69593 300 nM. Kb's were determined by Cheng-Prusoff equation (see Cheng and Prusoff, Biochem. Pharmacol. 22, 3099, 1973).

[1] = biological target: kappa opioid receptor (KOR) (Homo sapiens, UniProt P41145); test: SPA-based GTP-γ-S binding assay, antagonist mode, kappa opioid receptor; details: antagonist assay against agonist U69593 300 nM; membranes; Kb by Cheng-Prusoff equation
Procedure: as §1

[2] = biological target: delta opioid receptor (DOR) (Homo sapiens, UniProt P41143); test: SPA-based GTP-γ-S binding assay, antagonist mode, delta opioid receptor; details: antagonist assay against agonist DPDPE 30 nM; membranes; Kb by Cheng-Prusoff equation
Procedure: as §1

Sequence of kappa opioid receptor (KOR) (P41145 whole entry): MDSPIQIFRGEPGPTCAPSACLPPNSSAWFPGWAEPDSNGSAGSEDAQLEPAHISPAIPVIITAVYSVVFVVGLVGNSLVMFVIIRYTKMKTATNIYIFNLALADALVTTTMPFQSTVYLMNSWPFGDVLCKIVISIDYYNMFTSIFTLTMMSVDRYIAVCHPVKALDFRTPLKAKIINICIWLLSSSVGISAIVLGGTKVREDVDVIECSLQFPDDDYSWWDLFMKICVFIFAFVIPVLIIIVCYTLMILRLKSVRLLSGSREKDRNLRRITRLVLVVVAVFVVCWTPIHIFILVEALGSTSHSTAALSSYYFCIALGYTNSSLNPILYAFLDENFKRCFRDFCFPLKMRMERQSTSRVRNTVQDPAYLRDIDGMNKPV
Sequence of mu opioid receptor (MOR) (P35372 whole entry): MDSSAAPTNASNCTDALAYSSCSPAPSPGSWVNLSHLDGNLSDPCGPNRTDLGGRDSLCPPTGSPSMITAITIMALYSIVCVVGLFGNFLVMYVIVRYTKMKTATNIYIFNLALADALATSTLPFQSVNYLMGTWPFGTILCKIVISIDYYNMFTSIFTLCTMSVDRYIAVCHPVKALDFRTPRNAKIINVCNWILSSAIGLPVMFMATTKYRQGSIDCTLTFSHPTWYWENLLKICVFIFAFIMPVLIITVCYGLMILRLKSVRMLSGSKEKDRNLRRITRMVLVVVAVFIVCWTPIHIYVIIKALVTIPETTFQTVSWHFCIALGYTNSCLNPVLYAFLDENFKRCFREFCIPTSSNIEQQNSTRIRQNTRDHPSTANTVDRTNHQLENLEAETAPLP
Sequence of delta opioid receptor (DOR) (P41143 whole entry): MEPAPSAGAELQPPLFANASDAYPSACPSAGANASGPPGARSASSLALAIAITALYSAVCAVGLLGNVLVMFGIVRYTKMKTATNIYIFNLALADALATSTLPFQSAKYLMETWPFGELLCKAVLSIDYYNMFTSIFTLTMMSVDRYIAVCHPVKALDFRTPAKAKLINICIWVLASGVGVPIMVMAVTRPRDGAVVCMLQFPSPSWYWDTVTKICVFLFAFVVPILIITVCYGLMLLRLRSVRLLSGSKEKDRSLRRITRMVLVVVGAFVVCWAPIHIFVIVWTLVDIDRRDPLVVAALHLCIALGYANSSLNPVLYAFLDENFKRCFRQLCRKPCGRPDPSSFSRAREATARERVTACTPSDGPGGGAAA

Row | Structure (SMILES) | Kb (mu opioid receptor (MOR)) | Kb [1] | Kb [2]
1 | NC(=O)c1ccc(Oc2cccc3c2CCCC3CNCCC2CCCCC2)nc1 (stereo not drawn) [Example 195, 6-{5-[(2-Cyclohexyl-ethylamino)-methyl]-5,6,7,8-tetrahydro-naphthalen-1-yloxy}-nicotinamide] | 0.5 nM | 76 nM | 7.9 nM
2 | CC(C)CCNCC1CCCc2c(Oc3ccc(C(N)=O)cn3)cccc21 (stereo not drawn) [Example 192, 6-{5-[(3-Methyl-butylamino)-methyl]-5,6,7,8-tetrahydro-naphthalen-1-yloxy}-nicotinamide] | 1.1 nM | 11.8 nM | 9.4 nM

Next, values leading:

Row | Kb (mu opioid receptor (MOR)) | Kb [1] | Kb [2] | Structure (SMILES)
3 | 0.4 nM | 9.2 nM | 14.6 nM | NC(=O)c1ccc(Oc2ccc3c(c2)CCC3NCCc2ccc(F)cc2)nc1 (stereo not drawn) [Example 90, 6-{1-[2-(4-Fluoro-phenyl)-ethylamino]-indan-5-yloxy}-nicotinamide]
4 | 0.73 nM | 2.5 nM | 13.5 nM | CC(C)CCN(C)C1CCc2cc(Oc3ccc(C(N)=O)cn3)ccc21 (stereo not drawn) [Example 20]
5 | 0.65 nM | 5.79 nM | 4.09 nM | CC(C)(C)CCNCC1CCCc2c(Oc3ccc(C(N)=O)cn3)cccc21 (stereo not drawn) [Example 202, 6-{5-[(3,3-Dimethyl-butylamino)-methyl]-5,6,7,8-tetrahydro-naphthalen-1-yloxy}-nicotinamide]
